This passage reports melting point results from a melting point compilation (Tetko et al.; mined from patent text by program, amines drawn as free bases though some values may be those of a salt).

Turning to `O=S1(=O)c2cccc3cccc(c23)N1CCN1CCC(CC2C=Cc3ccccc32)CC1` (configuration not stated), the melting point is 166 °C.

`CC(C)(C)OC(=O)N[C@@H](Cc1ccc(NC(=O)OCC2c3ccccc3-c3ccccc32)cc1)C(=O)OCc1ccccc1` displayed a melting point of 186 to 187 °C.

For `CCc1cc(C)nc2c(C)ccc([N+](=O)[O-])c12`, the melting point is 89 to 90 °C.

Turning to `Cn1cc(C(=O)O)c(=O)c2cc(F)c(N3CCCN(c4ncccn4)CC3)c(C(F)(F)F)c21`, the melting point is 243 to 245 °C.

Turning to `COc1cc(COc2nn(-c3ccccc3)cc2/C=C/C(N)=O)ccc1OCc1nc(-c2ccco2)oc1C`, the melting point is 187 to 188 °C.

`[N-]=[N+]=NCC1OC(n2c(Cl)c(C=O)c3cc(Cl)c(Cl)cc32)C(O)C1O` (configuration not stated) gave a melting point of 160 to 161 °C.

`CC1(C)OC(=O)N(C(=O)/C=C/c2ccccc2)[C@@H]1c1ccccc1`: the melting point stood at 149 °C.

`CCCCCCCCCCCCCCCc1cc2cc(C(=O)OCC)ccc2[nH]1` had a melting point of 89 to 91 °C.

The molecule `Cc1cn2ccc(N)c(Br)c2n1` came in with a melting point of 158 to 160 °C.

`CC(C)(CO)Nc1nc2c(s1)CCc1cc(C#N)ccc1-2` displayed a melting point of 121 to 123 °C.

For the molecule `Cc1nc(N2CCOCC2)sc1-c1ccnc(Nc2ccc(N3CCOCC3)cc2)n1`, the melting point lay within 229 to 231 °C.

`Cn1cc(CCO)c2c3c(c(-c4ccccc4Cl)cc21)C(=O)NC3=O` gave a melting point of 225 to 229 °C.

The molecule `Brc1ccc2nc(-c3cccnc3)nn2c1` yielded a melting point of 176 °C.

For `COC(=O)c1ccc(-c2nccc3ccn(S(=O)(=O)c4ccc(OC)cc4)c23)cc1`, the melting point was in the range of 144 to 146 °C.

As for `CC1(C)c2cc3[nH]c(-c4ccncc4)nc3cc2C(=O)NC1O` (configuration not stated), the melting point was 260 to 268 °C.

Regarding `CC(=O)N1c2ccc(-c3ccc(CN(C)C)cc3)cc2C(Nc2ccccc2)CC1C` (configuration not stated), the melting point amounted to 90 °C.

Consider `CC12CCC3c4ccc(C(=O)O)cc4CCC3C1CCC2C(=O)c1ccc(Oc2ccccc2)cc1` (configuration not stated), for which the melting point fell in the range of 224 to 225 °C.

The molecule `Cc1cc(Oc2ccc(Cl)c(C(F)(F)F)c2)ncc1[N+](=O)[O-]` gave a melting point of 75 to 80 °C.

In the case of `O=C(Nc1ccc(C(=O)N2Cc3ccccc3Cc3ccccc32)cc1)c1cc(Cl)cc(Cl)c1`, the melting point lay in the range of 257 to 259 °C.

As to `Cc1oc(-c2ccccc2)nc1COc1ccc(COc2ncccc2CC#N)cc1`, the melting point is 149 to 150 °C.

Turning to `CCOP(=O)(OCC)C1CCc2cc(C(F)(F)F)cc3[nH]c(=O)c(=O)n1c23` (configuration not stated), the melting point worked out at 161 °C.

The molecule `O=c1ncc(Cl)cn1COCc1cnsn1` had a melting point of 106 °C.

The molecule `O=C1CCC(N2Cc3c(OCc4ccc(CN5CCCCC5)cc4)cccc3C2=O)C(=O)N1` (configuration not stated) showed a melting point of 186 to 188 °C.

In turn, `CNC(=NC#N)NCCS(=O)Cc1nsc(NC(=N)N)n1` (configuration not stated) displayed a melting point of 185 to 186 °C.

The molecule `Cc1nc(N(C)C)ncc1OCc1ccccc1` returned a melting point of 73 to 74 °C.

Consider `O=c1c(Br)c[nH]c2c([N+](=O)[O-])cccc12`, for which the melting point lay in the range of 279 to 282 °C.

Molecule `CC(C)(C)OC(=O)N[C@H](Cc1ccccc1)C(=O)N1CCC[C@H]1C(=O)NC1CCc2n[nH]cc2C1` (some centres not stated) yielded a melting point of 108 to 110 °C.

Molecule `CCCN(CCCCc1c[nH]c2ccc(F)cc12)C1COc2c(F)ccc(C(N)=O)c2C1` (configuration not stated) yielded a melting point of 115 °C.

`CCOC(=O)c1c(C)cc2cnc(-c3ccccc3)nc2c1C` displayed a melting point of 85 to 86 °C.

The molecule `CCN(CC)C(=S)NC1CC2c3cccc4[nH]c(I)c(c34)CC2N(C)C1` (configuration not stated) yielded a melting point of 198 °C.

Molecule `OC(COCCCl)c1ccc2cc(OCc3ccccc3)ccc2c1` (configuration not stated) returned a melting point of 86 to 87.5 °C.

In the case of `CCCc1nc2c(N)nc3ccccc3c2n1CC(N)=O`, the melting point was over 300 °C.

With `Cn1ncc2c1SSSSS2`, the melting point lay in the range of 57 to 60 °C.

With `O=C1Nc2ccccc2N2CCN(Cc3ccncc3)CC12` (configuration not stated), the melting point is 253 to 255 °C.

The molecule `CS(=O)(=O)c1ccc(Oc2ccc([N+](=O)[O-])c(OCc3ccccc3)c2)cc1` yielded a melting point of 142 to 143 °C.

The molecule `NC(=O)c1ccc(-c2cnc3[nH]c(=O)n(CCC4CCOCC4)c3n2)cc1` registered a melting point of 233 to 236 °C.

As for `COc1ccc(C(=S)Nc2ccccc2OC)cc1`, the melting point fell in the range of 84.5 to 86.5 °C.

Take `CCN(CC)CCOc1ccc(Nc2ncc3c(n2)N(CC)C(=O)N(c2cc(OC)cc(OC)c2)C3)cc1`: the melting point is 139 to 141 °C.

On to `CSc1ccc(C=C2C(=O)c3ccccc3CC2OCCn2ccnc2)cc1` (configuration not stated), for which the melting point lay in the range of 161 to 162 °C.

Turning to `OC(CCl)(Cc1c(Cl)cccc1Cl)c1ccc(Cl)cc1Cl` (configuration not stated), the melting point was determined as 117 °C.

`O=S(=O)(NCCO)c1cccc(-c2cccc(-c3nc(-c4ccc(C(F)(F)F)cc4)cc(C(F)(F)F)n3)c2)c1` gave a melting point of 153 °C.

In turn, `COC(=O)c1cc(C(=O)c2c(C)c(NC(=O)c3cccc(O)c3)c3ccccn23)ccc1N` returned a melting point of 278 °C.

`CCCCCS(=O)(=O)NC(=O)/C=C/c1ccc(Oc2ncccn2)cc1Oc1ncc(C(F)(F)F)cc1Cl` registered a melting point of 80.5 to 82.5 °C.

Molecule `CCOC(=O)Cc1nsc(NC(=O)c2ccccc2)n1` gave a melting point of 119 to 120 °C.

In the case of `CCOC(=O)COc1ccc2c(c1)C(=O)C(Br)CC2` (configuration not stated), the melting point fell in the range of 91 to 93 °C.

For `CC(C)(C)OC(=O)Cc1ccc(CNC(=O)C2Cc3ccccc3N2S(=O)(=O)c2ccc(-c3cccc(C(F)(F)F)c3)cc2)cn1` (configuration not stated), the melting point came to 70 °C.

Take `Cn1cc(C(=O)NCc2ccc(Cl)cc2)c(=O)c2cccc(C#CCCO)c21`: the melting point was in the range of 195 to 197 °C.

Take `Cc1ccccc1Nc1nc(N2CCCC2)nc2ccccc12`: the melting point fell in the range of 152 to 154 °C.

`Nc1nc(-c2cc(Cl)ccc2Cl)nc(N2CCOCC2)n1` yielded a melting point of 189 to 191 °C.

In turn, `COC(=O)C1=CC(=O)CCC1c1ccccc1` (racemic) came in with a melting point of 66 °C.

The molecule `O=C(O)C=Cc1c(-c2ccccc2)nn2ccccc12` returned a melting point of 153 to 155 °C.

For the molecule `COc1ccc(C=C(NC(C)=O)C(=O)O)cc1OC`, the melting point lay within 212 to 214 °C.

The molecule `CCCCc1c(C(=O)OCC)[nH]c2cccc(SC)c2c1=O` yielded a melting point of 80 °C.

Turning to `CCOc1ccc(-c2cc3ccccc3[nH]2)cc1OC`, the melting point is 177 °C.

The molecule `CC(C(=O)O)c1ccc2cc(OCc3csc(-c4ccccc4)n3)ccc2c1` (configuration not stated) registered a melting point of 163 to 164 °C.

Take `O=C(Nc1cccnc1)N1CCc2cc(I)ccc21`: the melting point was 210 to 215 °C.

With `COc1cc(COc2cc(CO)n(-c3ccccc3)n2)ccc1OCc1nc(-c2ccco2)oc1C`, the melting point lay within 106 to 107 °C.

In the case of `COC(=O)c1cc(O)ccc1N`, the melting point was 154 to 155 °C.

`Cc1ccc([N+](=O)[O-])cc1Nc1cc(-c2cccnc2)ccn1` gave a melting point of 170 to 173 °C.

In the case of `Cc1ccc(-c2nc(C)cc(Cl)n2)cc1`, the melting point fell in the range of 103 to 104 °C.

On to `COc1ccc(N2CCN(Cc3n[nH]c4c3CCc3ccccc3-4)CC2)cc1`, for which the melting point lay in the range of 207 to 208 °C.

`O=C(N[C@H](Cc1ccc(CC(F)(F)C(F)(F)F)cc1)[C@@H](O)c1cccc(Cl)c1)c1cccc2c1C=CCCC2` (racemic) gave a melting point of 176 to 177 °C.
